Assay results as given in publication PMC9829398 (Plant Biotechnology Journal, 2022).
“Also recorded” adds a separate entry of the source.

Assays:
THE1‐CD = test: THE1-CD kinase activity (autophosphorylation); type: biochemical, Arabidopsis thaliana; conditions: 5 μM
Meloidogyne incognita [1] = test: Established rice root-knot nematode disease (inhibitor applied after inoculation); type: in vivo; conditions: irrigated three days after inoculation
FRK1 = conditions: 5 μM for 24 h, confocal microscopy
PEPR1 = test: PEPR1-CD kinase activity; type: biochemical, Arabidopsis
Description: (§1) Fig. S10. […] (a) Effects of FER inhibitors on the kinase activity of the Arabidopsis receptor kinase PEPR1 and CERK1 cytoplasmic domains (CDs). […] AT1G73080. […] AT3G21630. DMSO (0.05%; v/v) was used as a negative control. The data are shown as the means ± SDs (n = 4). The assay was repeated three times with similar results. ***, […]) Protein purification of PEPR1-CD and CERK1-CD. […] In (c and d), the data are presented as the means ± SDs of three biological replicates.

Ralstonia solanacearum [2] = type: in vivo, tobacco; conditions: 5 μM irrigated twice two days after inoculation
Ralstonia solanacearum [3] = type: in vivo, tomato; conditions: roots pretreated twice with 3 mL of 5 μM
PER5 = conditions: 5 μM for 24 h, confocal microscopy
Ralstonia solanacearum [4] = type: in vivo; conditions: Arabidopsis seedlings pretreated with 5 μM, 4 days after inoculation
Meloidogyne incognita [5] = test: Rice root-knot nematode disease, preventive root treatment; type: in vivo; conditions: roots pretreated twice with 3 mL of 5 μM, 800 pre-J2s
CERK1 = test: CERK1-CD kinase activity; type: biochemical, Arabidopsis
Description: as §1

HERK1‐CD = test: HERK1-CD kinase activity (autophosphorylation); type: biochemical, Arabidopsis thaliana; conditions: 5 μM
[6] = tested on: ROS in Col‐0 and fer‐4 roots; test: ROS detection in plant roots (H2DCF-DA fluorescence); conditions: 5 μM for 15 min, vs DMSO and lapatinib
Ralstonia solanacearum [7] = type: in vivo, tobacco; conditions: roots pretreated twice with 3 mL of 5 μM
[8] = tested on: Arabidopsis Col‐0 and fer‐4 seedlings; test: Growth of Arabidopsis seedlings (root length, shoot fresh weight); conditions: 5 μM for 3 days, vs ddH2O (mock) and lapatinib

c1nc2nc(Nc3ccc(N4CCOCC4)cc3)nc(NC3CCCCC3)c2[nH]1 [Reversine]
Inhibition rate of THE1-CD kinase activity (THE1‐CD): lower than 55% | Effect on established rice root-knot nematode disease (Meloidogyne incognita [1]): could not completely prevent the occurrence of the diseases or cure already diseased plants | Expression of FRK1 in roots (FRK1): did not affect the expression levels | Effect on PEPR1 kinase activity (PEPR1): did not affect the kinase activity | Effect on established tobacco bacterial wilt (Ralstonia solanacearum [2]): could not completely prevent the occurrence of the diseases or cure already diseased plants | Control of tomato bacterial wilt (Ralstonia solanacearum [3]): alleviated soil‐borne diseases | Expression of PER5 in roots (PER5): did not affect the expression levels | Cotyledon bleaching caused by R. solanacearum (Ralstonia solanacearum [4]): effectively prevented the cotyledon bleaching | Control of rice root-knot nematode disease (Meloidogyne incognita [5]): better preventive effects than staurosporine; also recorded: alleviated soil‐borne diseases | Effect on CERK1 kinase activity (CERK1): did not affect the kinase activity | Inhibition rate of HERK1-CD kinase activity (HERK1‐CD): lower than 55% | Production of ROS in Col-0 roots [6]: significantly increased the production of ROS | Control of tobacco bacterial wilt (Ralstonia solanacearum [7]): alleviated tobacco bacterial wilt; also recorded: alleviated soil‐borne diseases | Growth of roots and shoots of Arabidopsis Col-0 seedlings [8]: did not affect the growth of roots and shoots

O=C(O)c1cc(N(Cc2ccccc2O)Cc2cc(O)ccc2O)ccc1O [Lavendustin A]
Inhibition rate of THE1-CD kinase activity (THE1‐CD): lower than 55% | Effect on established rice root-knot nematode disease (Meloidogyne incognita [1]): could not completely prevent the occurrence of the diseases or cure already diseased plants | Expression of FRK1 in roots (FRK1): did not affect the expression levels | Effect on PEPR1 kinase activity (PEPR1): did not affect the kinase activity | Effect on established tobacco bacterial wilt (Ralstonia solanacearum [2]): could not completely prevent the occurrence of the diseases or cure already diseased plants | Control of tomato bacterial wilt (Ralstonia solanacearum [3]): best control effect; also recorded: alleviated soil‐borne diseases | Expression of PER5 in roots (PER5): did not affect the expression levels | Cotyledon bleaching caused by R. solanacearum (Ralstonia solanacearum [4]): effectively prevented the cotyledon bleaching | Control of rice root-knot nematode disease (Meloidogyne incognita [5]): better preventive effects than staurosporine; also recorded: alleviated soil‐borne diseases | Effect on CERK1 kinase activity (CERK1): did not affect the kinase activity | Inhibition rate of HERK1-CD kinase activity (HERK1‐CD): lower than 55% | Production of ROS in Col-0 roots [6]: significantly increased the production of ROS | Control of tobacco bacterial wilt (Ralstonia solanacearum [7]): alleviated tobacco bacterial wilt; also recorded: alleviated soil‐borne diseases | Growth of roots and shoots of Arabidopsis Col-0 seedlings [8]: significantly promoted root and shoot growth
